From ChEMBL document CHEMBL1201862, “PubChem BioAssay data set” (2004)
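Cultured in 96-well plates, cells were exposed to test compound for 48 hours across five concentrations. The concentration for 50% growth inhibition is given as GI50.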 The source made the active and inactive calls. Rule as the data show it: active = GI50 up to about 1.1 µM and inactive = higher.

Experiments:
Assay in all cases: growth of human tumour cells (NCI), 48 h
SK-MEL-2 = test system: SK-MEL-2
CCRF-CEM = test system: CCRF-CEM
SN12C = test system: SN12C
SF-268 = test system: SF-268
LXFL 529 = test system: LXFL 529
M14 = test system: M14
KM-20L2 = test system: KM-20L2
NCI-H522 = test system: NCI-H522
DMS-273 = test system: DMS-273
TK-10 = test system: TK-10
SK-OV-3 = test system: SK-OV-3
UO-31 = test system: UO-31
MOLT-4 = test system: MOLT-4
HT-29 = test system: HT-29
COLO 205 = test system: COLO 205
786-0 = test system: 786-0
SK-MEL-5 = test system: SK-MEL-5
HCT-116 = test system: HCT-116
A549 = test system: A549
SNB-75 = test system: SNB-75
ACHN = test system: ACHN
KM12 = test system: KM12
UACC-62 = test system: UACC-62
Malme-3M = test system: Malme-3M
SF-539 = test system: SF-539
SK-MEL-28 = test system: SK-MEL-28
LOX IMVI = test system: LOX IMVI
NCI-H23 = test system: NCI-H23
EKVX = test system: EKVX
DLD-1 = test system: DLD-1
OVCAR-3 = test system: OVCAR-3
M19-MEL = test system: M19-MEL
HOP-92 = test system: HOP-92
A498 = test system: A498
SNB-78 = test system: SNB-78
HL-60 = test system: HL-60
HCT-15 = test system: HCT-15
OVCAR-4 = test system: OVCAR-4
NCI-H226 = test system: NCI-H226
SR = test system: SR
OVCAR-8 = test system: OVCAR-8
IGROV-1 = test system: IGROV-1
DMS-114 = test system: DMS-114
RPMI-8226 = test system: RPMI-8226
U-251 = test system: U-251
OVCAR-5 = test system: OVCAR-5
UACC-257 = test system: UACC-257
SF-295 = test system: SF-295
NCI-H460 = test system: NCI-H460
HOP-62 = test system: HOP-62
SNB-19 = test system: SNB-19
SW-620 = test system: SW-620
RXF 393 = test system: RXF 393
K562 = test system: K562
CAKI-1 = test system: CAKI-1
HCC 2998 = test system: HCC 2998
T47D = test system: T47D
BT-549 = test system: BT-549
DU-145 = test system: DU-145
MDA-N = test system: MDA-N
MDA-MB-435 = test system: MDA-MB-435
MCF7 = test system: MCF7
NCI/ADR-RES = test system: NCI/ADR-RES
PC-3 = test system: PC-3
Hs-578T = test system: Hs-578T
MDA-MB-231 = test system: MDA-MB-231
HOP-18 = test system: HOP-18

Measured: GI50

CCn1c(SC(C)C(=O)c2c(C)n(C)n(-c3ccccc3)c2=O)nc2ccccc2c1=O (stereo not given)
> 100 µM: HCT-15
inactive: SK-MEL-2 > 100 µM | CCRF-CEM > 100 µM | SN12C > 100 µM | SF-268 > 100 µM | LXFL 529 > 100 µM | M14 > 100 µM | KM-20L2 > 100 µM | NCI-H522 84.1 µM | DMS-273 > 100 µM | TK-10 > 100 µM | SK-OV-3 > 100 µM | UO-31 > 100 µM | MOLT-4 > 100 µM | HT-29 > 100 µM | COLO 205 > 100 µM | 786-0 > 100 µM | SK-MEL-5 > 100 µM | HCT-116 > 100 µM | A549 > 100 µM | SNB-75 > 100 µM | ACHN > 100 µM | KM12 > 100 µM | UACC-62 > 100 µM | Malme-3M > 100 µM | SF-539 > 100 µM | SK-MEL-28 > 100 µM | LOX IMVI > 100 µM | NCI-H23 > 100 µM | EKVX 36.4 µM | DLD-1 > 100 µM | OVCAR-3 > 100 µM | M19-MEL > 100 µM | HOP-92 4.47 µM | A498 > 100 µM | SNB-78 > 100 µM | HL-60 > 100 µM | OVCAR-4 > 100 µM | NCI-H226 > 100 µM | SR > 100 µM | OVCAR-8 > 100 µM | IGROV-1 > 100 µM | DMS-114 > 100 µM | RPMI-8226 95.1 µM | U-251 > 100 µM | OVCAR-5 > 100 µM | UACC-257 > 100 µM | SF-295 > 100 µM | NCI-H460 > 100 µM | HOP-62 > 100 µM

CSc1nc(NC2OCC(OC(C)=O)C(OC(C)=O)C2OC(C)=O)c2c(n1)OCC2=O (stereo not given)
inactive: SK-MEL-2 > 100 µM | CCRF-CEM > 100 µM | SN12C > 100 µM | SF-268 > 100 µM | LXFL 529 > 100 µM | M14 > 100 µM | KM-20L2 > 100 µM | NCI-H522 > 100 µM | DMS-273 > 100 µM | TK-10 > 100 µM | SK-OV-3 > 100 µM | UO-31 > 100 µM | MOLT-4 > 100 µM | HT-29 > 100 µM | COLO 205 > 100 µM | 786-0 > 100 µM | SK-MEL-5 > 100 µM | HCT-116 > 100 µM | A549 > 100 µM | SNB-75 > 100 µM | SNB-19 > 100 µM | ACHN > 100 µM | KM12 > 100 µM | UACC-62 > 100 µM | Malme-3M > 100 µM | SW-620 > 100 µM | RXF 393 > 100 µM | SF-539 > 100 µM | SK-MEL-28 > 100 µM | LOX IMVI > 100 µM | NCI-H23 > 100 µM | EKVX > 100 µM | DLD-1 > 100 µM | OVCAR-3 > 100 µM | K562 > 100 µM | M19-MEL > 100 µM | A498 > 100 µM | SNB-78 > 100 µM | CAKI-1 > 100 µM | HL-60 > 100 µM | NCI-H226 > 100 µM | HCC 2998 > 100 µM | OVCAR-8 > 100 µM | IGROV-1 > 100 µM | DMS-114 > 100 µM | RPMI-8226 > 100 µM | U-251 > 100 µM | OVCAR-5 > 100 µM | UACC-257 > 100 µM | SF-295 > 100 µM | NCI-H460 > 100 µM | HOP-62 > 100 µM
> 100 µM: HCT-15

Nc1c(-c2cccc3ccccc23)c2ccc([N+](=O)[O-])cc2c(=O)n1-c1nc2ccccc2s1
active: SNB-75 0.875 µM | RPMI-8226 1.02 µM
inactive: SK-MEL-2 3.82 µM | CCRF-CEM 1.33 µM | SN12C 6.27 µM | SF-268 3.18 µM | M14 11.7 µM | NCI-H522 2.22 µM | T47D 3.37 µM | TK-10 4.42 µM | SK-OV-3 2.75 µM | UO-31 4.1 µM | MOLT-4 3.03 µM | HT-29 5.02 µM | COLO 205 18.1 µM | BT-549 14.3 µM | DU-145 7.57 µM | 786-0 5.64 µM | SK-MEL-5 6.73 µM | HCT-116 5.13 µM | A549 3.32 µM | MDA-N 7.13 µM | SNB-19 8.07 µM | ACHN 3.16 µM | KM12 3.84 µM | UACC-62 5.6 µM | MDA-MB-435 9.38 µM | Malme-3M 3.58 µM | MCF7 1.5 µM | SW-620 11.2 µM | RXF 393 6.04 µM | SF-539 2.2 µM | SK-MEL-28 14.1 µM | LOX IMVI 4.4 µM | NCI-H23 2.11 µM | EKVX 1.94 µM | OVCAR-3 3.94 µM | K562 6.93 µM | HOP-92 3.23 µM | NCI/ADR-RES 2.26 µM | A498 7.66 µM | CAKI-1 5.15 µM | HL-60 2.18 µM | OVCAR-4 9.82 µM | NCI-H226 2.41 µM | HCC 2998 7.14 µM | SR 12.5 µM | OVCAR-8 2.16 µM | PC-3 4.84 µM | IGROV-1 3.41 µM | Hs-578T 2.98 µM | U-251 3.71 µM | MDA-MB-231 5.37 µM | OVCAR-5 14.3 µM | UACC-257 3.41 µM | SF-295 5.53 µM | NCI-H460 3.1 µM | HOP-62 7.21 µM
6.38 µM: HCT-15

O=C(Nc1ccc([N+](=O)[O-])cc1Cl)c1cccc([N+](=O)[O-])c1O
inactive: SK-MEL-2 1.6 µM | CCRF-CEM 1.13 µM | SN12C 1.48 µM | SF-268 2.7 µM | KM-20L2 2.74 µM | UO-31 1.45 µM | MOLT-4 1.88 µM | HT-29 3.04 µM | A549 2.3 µM | SNB-19 3.09 µM | ACHN 2.52 µM | KM12 3.11 µM | SW-620 2.59 µM | SF-539 2.05 µM | SK-MEL-28 1.6 µM | LOX IMVI 1.71 µM | NCI-H23 1.12 µM | EKVX 2.16 µM | K562 1.12 µM | SNB-78 2.3 µM | CAKI-1 1.83 µM | HL-60 1.87 µM | OVCAR-4 2.82 µM | NCI-H226 2.84 µM | HCC 2998 1.69 µM | SR 2.9 µM | OVCAR-8 2.61 µM | U-251 2.75 µM | OVCAR-5 3.02 µM | UACC-257 2.02 µM | SF-295 1.92 µM | NCI-H460 2.21 µM
active: LXFL 529 1.09 µM | NCI-H522 0.755 µM | HOP-18 0.109 µM | Malme-3M 0.552 µM | A498 0.668 µM | RPMI-8226 0.92 µM
